Results: patent US7276050B2, “Trans-scleral drug delivery method and apparatus” (priority 2004, dated 2007)

What was measured:
[1] = Transmission electron microscopy of sclera after diffusion experiments; set-up: species or system human; details: after diffusion experiments with CAI in all three test solutions
Procedure: At the end of the trans-scleral diffusion experiments with CAI (DMSO 10%, 20%, and ethanol 10%) and 2ME2 (1% DMSO) the scleral tissue was fixed in 2.5% glutaraldehyde in 0.1 M sodium cacodylate buffer and prepared for transmission electron microscopy (TEM). The scleral tissue was bisected and postfixed in 2% osmium tetroxide for 2 hours. Small pieces of the sclera were embedded in low-viscosity epoxy medium, thin sectioned, stained with uranyl acetate and lead citrate, and viewed with a JEOL 100 CX transmission electron microscope. The micrographs were taken at X 2850.

[2] = cited from earlier work
[3] = Trans-scleral diffusion in 2 chamber perfusion apparatus (HPLC readout); assay type: in vitro ADME, human
Excerpt: Scleral tissue was obtained from 23 human donor eyes (Georgia Eye Bank, Atlanta) and was stored in moist chambers for 2-6 days post-mortem. The mean age at time of death (±SE) for the donor tissue used in this study was 52.4±4.4 years. Scleral tissue was dissected from the superotemporal quadrant of each eye to minimize associated structures that can modify scleral permeability such as vortex veins, posterior ciliary arteries, and anterior ciliary vessels. Uveal tissue and episclera were carefully removed using a cotton-tip applicator. The sclera was mounted horizontally in a 2 chamber acrylic perfusion apparatus (FIG. 1). The uveal surface was apposed to the lower flow-through hemi-chamber (volume 500 μL) containing balanced salt solution (BSS, Alcon laboratories, Ft. Worth, Tex.). The test solution was applied to the episcleral surface. Since CAI has a 423 Da molecular weight and the molecule is hydrophobic with a solubility of 1-10 μM in water, three different test solutions that contained carboxyamido-triazole were evaluated: CAI in 20% DMSO (80% BSS vol/vol) at a concentration (mean±SE) of 15.2±3.0 μM (solution A), CAI in 10% DMSO (90% BSS) at a concentration of 4.1±0.4 μM (solution B), and CAI in 10% ethanol (90% BSS) at a concentration of 3.3±0.2 μM (solution C).
The BSS in the lower hemi-chamber was perfused at a rate of 0.03 ml/min. The perfusion apparatus was placed on a magnetic stir plate and mixing in the lower hemi-chamber was achieved using a stir bar. The upper hemi-chamber containing the test compound was covered with parafilm and sealed with silicone grease to prevent evaporation. This also provided a flexible seal so that trans-scleral pressure would not be altered. The temperature of the apparatus was maintained at 37° C. by a water jacket with circulating water bath.
A physiologic pressure of 15 mm Hg was applied across the sclera by raising the height of the outflow tube of the receptor (lower-) chamber to 22 cm. A pressure transducer that was connected to the lower hemi-chamber verified the pressure. For all three solutions that contained carboxyamido-triazole 100 μl was applied to the episcleral side and samples of perfusate were collected at the uveal side of the sclera at time zero and at 30-minute intervals for the duration of 8 hours. The scleral permeability to CAI in a 10% ethanol solution was also evaluated over a longer period of 24 hours of which samples were taken hourly. For the 24 hours experiments 500 μl of the test solution was added to the upper hemi-chamber to minimize depletion of the drug on the donor side.
From each sample obtained from the trans-scleral diffusion experiments an aliquot of 100 μl was taken and the concentrations of CAI were monitored by reverse-phase high-performance liquid chromatography (HPLC). Results were calculated on the basis of peak areas. Samples were analyzed by using a Hewlett Packard HP1100 HPLC system equipped with a UV detector, an auto-sampler, a pump, and a HP Kayak workstation that controls the operation of HPLC and analyzes the data. A Zorbak Rx-C8 column (4.6×250 mm) was used for separation and detection was set at 260 nm. The flow rate employed was 1.0 ml/min with mobile phase of 55% acetonitrile and 45% water. The injection volume was 100 μl and retention time of CAI was about 7.8 minutes.
Steady state permeability constants were calculated from the data as: Ktrans=[Rtotal/(t)(A)]×1/[D]
Where Rtotal is the amount of drug in the receiver effluent per collected fraction, and t is the fraction collection time (in seconds). A is the area of exposed sclera (in square centimeters). This value—Rtotal/(t)(A)—is equal to the flux across the tissue. D is the concentration of drug in the donor hemi-chamber. Permeability thus represents the steady state flux normalized by donor concentration. The area of exposed sclera was 0.385 cm2. Mean steady state permeability values (±SE) were calculated from four to eight experiments performed for each compound.

[4] = tested on: hyperoxia-induced ocular neovascularization; experiment: Mouse pup model of hyperoxia-induced ocular neovascularization; assay type: in vivo
Excerpt: Testing of CAI in a mouse pup model of hyperoxia-induced ocular neovascularization, in which posterior retinal ischemia mediates of pathological angiogenesis, has confirmed that CAI is a potent inhibitor of ocular angiogenesis in this model.

[5] = mouse pup, hyperoxia-induced ocular neovascularization

NC(=O)c1nnn(Cc2cc(Cl)c(C(=O)c3ccc(Cl)cc3)c(Cl)c2)c1N [CAI, Carboxyamido-triazole]
scleral ultrastructure by TEM [1]: normal ultrastructure within the sclera | solubility in water [2]: 1 to 10 µM | diffusion across the sclera [3]: diffused across the sclera effectively | time at which semi-steady state flux was observed ([3]; human, 3.3 μM): 13 h | time to reach steady state ([3]; human, 4.1 μM): 6 h | time to reach semi-steady state ([3]; human, 15.2 μM): approximately 5 hours | Papp at 8 h, 15.2 μM ([3]; solution A: 15.2 μM CAI in 20% DMSO (80% BSS), human sclera, 37° C., 15 mm Hg, n=4, read-out: permeability constant (mean±SE)): 2.8 ×10⁻⁶ cm/s | Papp at 8 h, 4.1 μM ([3]; solution B: 4.1 μM CAI in 10% DMSO (90% BSS), human sclera, n=7, read-out: permeability constant (mean±SE)): 5.5 ×10⁻⁶ cm/s | Papp at 24 h, 3.3 μM ([3]; solution C: 3.3 μM CAI in 10% EtOH (90% BSS), 24 hour sampling, human sclera, n=4, read-out: permeability constant (mean±SE)): 4.16 ×10⁻⁶ cm/s | intracellular bcl-2 (immunohistochemistry) ([4]; ischemic inner plexiform layer, mouse pup model): up regulation of intracellular bcl-2 | formation of neovascular fronds [4, 5]: nearly completely abolished formation of neovascular fronds | regression of preformed neovascular fronds [4, 5]: dramatic and significant regression of preformed neovascular fronds
